We go through seven molecules from patent US8673938B2, “Chemical compounds” (priority 2006, dated 2014).

Experiment [1] deals with T1, human 11βHSD1 enzyme (Homo sapiens (Human), UniProt P28845). The conditions noted are these: for % inhibition of human 11-βHSD: test concentration of 30 μM of compound.
Procedure: (§1) The evaluation of compounds described herein was carried out using a baculovirus expressed N terminal 6-His tagged full length human 11βHSD1 enzyme(*1). […] Inhibitors of 11βHSD1 reduce the conversion of cortisone to cortisol, which is identified by an increase in signal, in the above assay.
(§2) Compounds to be tested were dissolved in dimethyl sulphoxide (DMSO) to 10 mM and diluted further in assay buffer containing 1% DMSO to 10 fold the final assay concentration. Diluted compounds were then plated into black 384 well plates (Matrix, Hudson N.H., USA).
(§3) The assay plates were incubated for 25 minutes at 37° C. after which time the reaction was stopped by the addition of 10 μl of 0.5 mM glycerrhetinic acid plus conjugated cortisol (XL665 or D2). 10 μl of anti-cortisol Cryptate was then added and the plates sealed and incubated for 6 hours at room temperature.
For experiment [2], the target named is T1, human 11βHSD1 enzyme. The experiment is described as follows: biochemical. The conditions noted are these: read-out: % inhibition of human 11-βHSD.
Procedure: as §1, §2, §3

T1 sequence (P28845 whole entry): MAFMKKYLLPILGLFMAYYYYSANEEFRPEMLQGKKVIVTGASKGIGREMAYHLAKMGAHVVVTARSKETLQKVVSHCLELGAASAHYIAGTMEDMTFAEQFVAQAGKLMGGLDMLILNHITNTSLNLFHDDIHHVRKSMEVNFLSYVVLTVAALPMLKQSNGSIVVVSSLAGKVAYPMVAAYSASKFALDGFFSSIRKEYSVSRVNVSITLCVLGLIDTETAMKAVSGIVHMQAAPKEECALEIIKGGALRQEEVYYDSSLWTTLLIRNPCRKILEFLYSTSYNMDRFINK

One may read the IC50 as the point on the concentration scale where inhibition reaches its midpoint. For orientation: inhibition means the percentage by which the read-out fell short of the control. `CCCSc1nc(N2CCC[C@H](CC(=O)O)C2)ccc1C(=O)NC1CCCCC1` [Example 1, 2-[(3R)-1-[5-(Cyclohexylcarbamoyl)-6-propylsulfanyl-pyridin-2-yl]-3-piperidyl]acetic acid]: at human 11βHSD1 enzyme [1], the 50% inhibitory concentration (IC50) was determined as 95 nM. Further, the inhibition at 30 µM at human 11βHSD1 enzyme [2] is 87%.
As for `CCCSc1nc(N2CCC[C@@H](CC(=O)O)C2)ccc1C(=O)NC1CCCCC1` [Example 7, 2-[(3S)-1-[5-(cyclohexylcarbamoyl)-6-propylsulfanyl-pyridin-2-yl]-3-piperidyl]acetic acid], the IC50 against human 11βHSD1 enzyme [1] came out at 7 nM. Moreover, the inhibition at 30 µM on human 11βHSD1 enzyme [2] came out at 87%.
For `Cc1nc(N2CCC[C@@H](CC(=O)O)C2)ccc1C(=O)NC12CC3CC(CC(C3)C1)C2` [compound 160], at human 11βHSD1 enzyme [1], the “% inhibition of human 11-βHSD” value was 80%.
The same measure, in the same setting: as for `Cc1nc(N2CCC[C@@H](CC(=O)O)C2)ccc1C(=O)NC1C2CC3CC(C2)CC1C3` (stereo partly drawn) [compound 161], the figure is 84%; as for `O=C(O)C[C@@H]1CCCN(c2ccc(C(=O)NC3CCCCC3)c(C3CC3)n2)C1` [compound 165], 95%; as for `O=C(O)C[C@@H]1CCCN(c2ccc(C(=O)NC3C4CC5CC(C4)CC3C5)c(C3CC3)n2)C1` (stereo partly drawn) [compound 166], 95%.
Same read-out and setting: as for `O=C(O)C[C@@H]1CCCN(c2ccc(C(=O)N[C@H]3C4CC5CC3C[C@@](O)(C5)C4)c(C3CC3)n2)C1` [compound 167], the figure is 95%.
